Values of other authors as cited in patent publication US20040157796A1 (priority 2002, published 2004).

Tests used:
[1] = background statement
[2] = target: COX-1 (Homo sapiens, UniProt P23219); conditions: background statement
Chain of COX-1 (P23219 24-599): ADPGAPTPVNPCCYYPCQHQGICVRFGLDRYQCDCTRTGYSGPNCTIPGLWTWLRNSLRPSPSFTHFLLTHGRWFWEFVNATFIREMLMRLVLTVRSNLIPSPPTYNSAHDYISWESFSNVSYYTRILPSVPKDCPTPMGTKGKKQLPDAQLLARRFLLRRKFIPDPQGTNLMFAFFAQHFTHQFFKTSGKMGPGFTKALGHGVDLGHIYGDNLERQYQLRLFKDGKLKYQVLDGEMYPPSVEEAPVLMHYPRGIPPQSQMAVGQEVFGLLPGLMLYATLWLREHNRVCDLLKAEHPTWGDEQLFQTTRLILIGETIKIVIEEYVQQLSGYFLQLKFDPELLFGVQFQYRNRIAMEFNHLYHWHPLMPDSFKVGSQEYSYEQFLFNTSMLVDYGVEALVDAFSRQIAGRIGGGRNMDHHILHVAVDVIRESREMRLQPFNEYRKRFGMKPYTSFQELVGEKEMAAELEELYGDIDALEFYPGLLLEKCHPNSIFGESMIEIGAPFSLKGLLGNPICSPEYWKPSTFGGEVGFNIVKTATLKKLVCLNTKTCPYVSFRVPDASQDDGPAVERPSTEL

Row | Compound | solubility in water [1] | in vitro inhibitory activity against COX-1 [2]
1 | Cc1onc(-c2ccccc2)c1-c1ccc(S(N)(=O)=O)cc1 [valdecoxib] | extremely low solubility | weak inhibitor
2 | CCC(=O)NS(=O)(=O)c1ccc(-c2c(-c3ccccc3)noc2C)cc1 [Parecoxib, N-[[4-(5-methyl-3-phenylisoxazol-4-yl)phenyl]sulfonyl]propanamide] | much more soluble | weak in vitro inhibitory activity
